According to US9682141B2, “Combination of kinase inhibitors and uses thereof” (INTELLIKINE LLC, priority 2011, dated 2017):

How the values were obtained:
[1] = PBS pH 7.4, 37° C., 24 hours, 5 μM reference compound; cited from earlier work
PI3K δ = PI3K δ (Homo sapiens (Human), UniProt O00329); test: PI 3-Kinase (human) HTRF assay, p110δ/p85α; type: biochemical
mTORC = mTORC (Homo sapiens (Human), UniProt P42345); test: mTOR inhibition assay (radiometric or LanthaScreen TR-FRET); type: biochemical
Chain of mTORC (P42345 1360-2549): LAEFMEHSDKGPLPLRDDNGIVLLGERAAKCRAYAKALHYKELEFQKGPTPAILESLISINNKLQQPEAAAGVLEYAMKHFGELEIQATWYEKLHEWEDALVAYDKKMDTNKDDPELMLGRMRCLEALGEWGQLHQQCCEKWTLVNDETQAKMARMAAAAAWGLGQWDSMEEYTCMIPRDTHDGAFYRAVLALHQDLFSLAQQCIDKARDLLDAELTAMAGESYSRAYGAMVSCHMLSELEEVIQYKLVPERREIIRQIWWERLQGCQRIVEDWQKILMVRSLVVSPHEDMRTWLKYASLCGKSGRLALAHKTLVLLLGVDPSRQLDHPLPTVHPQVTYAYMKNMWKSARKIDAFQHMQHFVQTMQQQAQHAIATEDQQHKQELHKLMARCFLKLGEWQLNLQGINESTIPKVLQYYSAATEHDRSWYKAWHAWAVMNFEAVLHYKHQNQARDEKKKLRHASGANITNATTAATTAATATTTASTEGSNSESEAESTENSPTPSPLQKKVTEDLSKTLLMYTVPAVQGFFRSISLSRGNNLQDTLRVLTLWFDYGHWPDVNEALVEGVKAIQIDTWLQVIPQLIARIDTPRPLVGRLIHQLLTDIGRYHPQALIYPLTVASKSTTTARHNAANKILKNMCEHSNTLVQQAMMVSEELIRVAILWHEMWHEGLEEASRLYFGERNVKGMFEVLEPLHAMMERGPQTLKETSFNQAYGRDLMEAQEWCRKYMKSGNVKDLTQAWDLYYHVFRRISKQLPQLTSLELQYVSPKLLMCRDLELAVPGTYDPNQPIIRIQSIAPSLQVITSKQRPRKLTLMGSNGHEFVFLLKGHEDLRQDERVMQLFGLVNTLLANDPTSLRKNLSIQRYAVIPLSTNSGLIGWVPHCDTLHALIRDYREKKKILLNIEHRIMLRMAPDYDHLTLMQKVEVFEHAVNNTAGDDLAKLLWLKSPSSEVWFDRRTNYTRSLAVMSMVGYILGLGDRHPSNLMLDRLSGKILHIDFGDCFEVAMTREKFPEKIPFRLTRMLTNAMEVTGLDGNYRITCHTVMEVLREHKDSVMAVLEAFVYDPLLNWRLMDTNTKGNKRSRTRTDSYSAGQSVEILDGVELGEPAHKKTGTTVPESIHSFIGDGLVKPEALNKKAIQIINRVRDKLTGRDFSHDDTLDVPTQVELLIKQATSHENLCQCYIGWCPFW
Description: The compounds described herein can be tested against recombinant mTOR (Invitrogen) in an assay containing 50 mM HEPES, pH 7.5, 1 mM EGTA, 10 mM MgCl2, 2.5 mM, 0.01% Tween, 10 μM ATP (2.5 μCi of μ-32P-ATP), and 3 μg/mL BSA. Rat recombinant PHAS-1/4EBP1 (Calbiochem; 2 mg/mL) is used as a substrate. Reactions are terminated by spotting onto nitrocellulose, which is washed with 1M NaCl/1% phosphoric acid (approximately 6 times, 5-10 minutes each). Sheets are dried and the transferred radioactivity quantitated by phosphorimaging.
For instance, one can use Invitrogen's LanthaScreen™ Kinase assay to test the inhibitors of mTOR disclosed herein. This assay is a time resolved FRET platform that measures the phosphorylation of GFP labeled 4EBP1 by mTOR kinase. The kinase reaction is performed in a white 384 well microtitre plate. The total reaction volume is 20 ul per well and the reaction buffer composition is 50 mM HEPES pH7.5, 0.01% Polysorbate 20, 1 mM EGTA, 10 mM MnCl2, and 2 mM DTT. In the first step, each well receives 2 ul of test compound in 20% dimethylsulphoxide resulting in a 2% DMSO final concentration. Next, 8 ul of mTOR diluted in reaction buffer is added per well for a 60 ng/ml final concentration. To start the reaction, 10 ul of an ATP/GFP-4EBP1 mixture (diluted in reaction buffer) is added per well for a final concentration of 10 μM ATP and 0.5 μM GFP-4EBP1. The plate is sealed and incubated for 1 hour at room temperature. […] The plate is sealed, incubated for 1 hour at room temperature, and then read on a plate reader set up for LanthaScreen™ TR-FRET. Data is analyzed and IC50s are generated using GraphPad Prism 5.

PI3K β = PI3K β (Homo sapiens (Human), UniProt P42338); test: PI 3-Kinase (human) HTRF assay, p110β/p85α; type: biochemical
PI3K γ = PI3K γ (Homo sapiens (Human), UniProt P48736); test: PI 3-Kinase (human) HTRF assay, p110γ; type: biochemical; settings: read-out: PI3K γ IC50
PI3K α = PI3K α (Homo sapiens (Human), UniProt P42336); test: PI 3-Kinase (human) HTRF assay, p110α/p85α; type: biochemical
Chain of PI3K α (P42336 whole entry): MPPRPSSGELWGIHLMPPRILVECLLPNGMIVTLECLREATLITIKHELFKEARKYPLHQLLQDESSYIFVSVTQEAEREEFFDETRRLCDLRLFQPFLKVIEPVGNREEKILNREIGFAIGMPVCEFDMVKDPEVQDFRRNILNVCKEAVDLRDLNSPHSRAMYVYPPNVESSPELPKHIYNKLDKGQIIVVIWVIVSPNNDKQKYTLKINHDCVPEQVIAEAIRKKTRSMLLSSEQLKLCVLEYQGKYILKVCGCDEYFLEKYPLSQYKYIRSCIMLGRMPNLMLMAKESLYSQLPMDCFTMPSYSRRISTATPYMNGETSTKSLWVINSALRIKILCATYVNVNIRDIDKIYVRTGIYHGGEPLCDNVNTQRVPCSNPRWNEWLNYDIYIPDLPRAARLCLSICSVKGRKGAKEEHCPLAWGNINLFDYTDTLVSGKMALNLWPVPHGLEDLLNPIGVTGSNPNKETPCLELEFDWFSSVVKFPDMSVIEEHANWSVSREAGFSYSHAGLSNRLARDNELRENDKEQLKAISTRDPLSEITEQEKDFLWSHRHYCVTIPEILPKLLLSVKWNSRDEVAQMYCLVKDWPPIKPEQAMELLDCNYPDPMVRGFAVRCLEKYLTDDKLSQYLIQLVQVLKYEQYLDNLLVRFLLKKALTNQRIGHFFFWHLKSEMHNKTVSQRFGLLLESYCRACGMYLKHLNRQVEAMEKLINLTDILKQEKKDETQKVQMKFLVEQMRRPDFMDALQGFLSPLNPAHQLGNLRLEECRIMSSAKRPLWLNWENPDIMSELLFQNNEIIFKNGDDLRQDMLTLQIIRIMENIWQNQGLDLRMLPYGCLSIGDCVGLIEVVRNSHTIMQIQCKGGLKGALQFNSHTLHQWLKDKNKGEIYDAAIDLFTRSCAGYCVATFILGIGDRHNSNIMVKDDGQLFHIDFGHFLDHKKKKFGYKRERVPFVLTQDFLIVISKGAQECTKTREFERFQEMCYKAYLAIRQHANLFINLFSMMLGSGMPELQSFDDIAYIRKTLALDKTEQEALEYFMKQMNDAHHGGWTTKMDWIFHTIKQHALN
Chain of PI3K α (P27986 whole entry partner): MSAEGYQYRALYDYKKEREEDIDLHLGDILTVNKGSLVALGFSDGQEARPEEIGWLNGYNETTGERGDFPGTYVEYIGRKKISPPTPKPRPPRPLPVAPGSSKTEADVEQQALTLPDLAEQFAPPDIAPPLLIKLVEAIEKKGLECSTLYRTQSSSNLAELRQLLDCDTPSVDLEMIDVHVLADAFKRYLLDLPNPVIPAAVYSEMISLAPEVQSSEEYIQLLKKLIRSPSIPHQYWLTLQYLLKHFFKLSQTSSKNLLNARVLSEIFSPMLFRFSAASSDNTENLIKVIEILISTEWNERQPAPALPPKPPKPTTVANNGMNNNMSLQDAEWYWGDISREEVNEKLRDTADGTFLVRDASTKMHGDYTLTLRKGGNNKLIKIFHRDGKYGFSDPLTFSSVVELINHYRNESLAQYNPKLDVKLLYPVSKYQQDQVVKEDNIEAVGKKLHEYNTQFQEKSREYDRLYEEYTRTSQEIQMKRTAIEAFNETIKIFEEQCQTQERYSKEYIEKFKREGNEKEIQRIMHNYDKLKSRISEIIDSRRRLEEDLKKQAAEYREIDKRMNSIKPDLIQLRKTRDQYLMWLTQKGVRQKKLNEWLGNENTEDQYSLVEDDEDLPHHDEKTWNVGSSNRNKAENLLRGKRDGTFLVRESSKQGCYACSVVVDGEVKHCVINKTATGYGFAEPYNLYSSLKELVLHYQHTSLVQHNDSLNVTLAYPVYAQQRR

[2] = control or reference compound, 5 μM; cited from earlier work
[3] = test system: PI3K/Akt/mTor signaling in blood cells; test: Kinase signaling in blood (phosflow); type: cell-based; settings: anti-CD3 stimulated splenocytes or PBMC
Description: PI3K/Akt/mTor signaling is measured in blood cells using the phosflow method (Methods Enzymol. 2007; 434:131-54). The advantage of this method is that it is by nature a single cell assay so that cellular heterogeneity can be detected rather than population averages. This allows concurrent dinstinction of signaling states in different populations defined by other markers. Phosflow is also highly quantitative. To test the effects of one or more compounds disclosed herein, unfractionated splenocytes, or peripheral blood mononuclear cells are stimulated with anti-CD3 to initiate T-cell receptor signaling. The cells are then fixed and stained for surface markers and intracellular phosphoproteins.
Similarly, aliquots of whole blood are incubated for 15 minutes with vehicle (e.g., 0.1% DMSO) or kinase inhibitors at various concentrations, before addition of stimuli to crosslink the T cell receptor (TCR) (anti-CD3 with secondary antibody) or the B cell receptor (BCR) using anti-kappa light chain antibody (Fab′2 fragments). After approximately 5 and 15 minutes, samples are fixed (e.g., with cold 4% paraformaldehyde) and used for phosflow. […] The level of phosphrylation of kinase substrates such as Akt and S6 are then measured by incubating the fixed cells with labeled antibodies specific to the phosphorylated isoforms of these proteins. The population of cells is then analyzed by flow cytometry.

Chain of PI3K δ (O00329 whole entry): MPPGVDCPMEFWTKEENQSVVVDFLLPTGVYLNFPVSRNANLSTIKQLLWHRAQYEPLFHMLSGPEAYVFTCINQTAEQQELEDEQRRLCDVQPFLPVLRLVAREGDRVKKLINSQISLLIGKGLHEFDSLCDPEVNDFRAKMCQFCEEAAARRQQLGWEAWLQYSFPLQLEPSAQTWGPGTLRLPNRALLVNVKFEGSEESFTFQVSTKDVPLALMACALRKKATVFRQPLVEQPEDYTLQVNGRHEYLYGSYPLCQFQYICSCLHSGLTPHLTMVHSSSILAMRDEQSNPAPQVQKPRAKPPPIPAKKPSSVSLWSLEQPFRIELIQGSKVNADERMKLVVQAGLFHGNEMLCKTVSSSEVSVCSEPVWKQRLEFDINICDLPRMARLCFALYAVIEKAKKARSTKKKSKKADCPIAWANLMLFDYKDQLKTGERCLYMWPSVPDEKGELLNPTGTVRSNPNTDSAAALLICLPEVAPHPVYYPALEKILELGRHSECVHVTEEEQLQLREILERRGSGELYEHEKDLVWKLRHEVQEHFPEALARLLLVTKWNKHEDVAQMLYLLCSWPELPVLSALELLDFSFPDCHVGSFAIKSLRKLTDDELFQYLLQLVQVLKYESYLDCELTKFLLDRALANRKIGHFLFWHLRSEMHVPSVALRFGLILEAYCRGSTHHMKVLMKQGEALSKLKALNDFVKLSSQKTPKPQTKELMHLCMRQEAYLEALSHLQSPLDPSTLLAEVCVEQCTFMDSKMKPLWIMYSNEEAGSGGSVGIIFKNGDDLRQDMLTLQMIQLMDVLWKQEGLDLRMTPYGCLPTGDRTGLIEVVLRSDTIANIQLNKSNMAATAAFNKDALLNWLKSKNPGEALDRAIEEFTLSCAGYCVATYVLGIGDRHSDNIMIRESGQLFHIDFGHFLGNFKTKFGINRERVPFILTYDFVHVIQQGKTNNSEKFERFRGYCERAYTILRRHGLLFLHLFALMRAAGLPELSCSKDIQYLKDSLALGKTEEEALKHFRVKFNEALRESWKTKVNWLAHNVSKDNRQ
Chain of PI3K δ (P27986 whole entry partner): as the sequence (P27986 whole entry partner) above

O=C(O)CCCc1ccc(N(CCCl)CCCl)cc1 [chlorambucil, 4-[bis(2-chloroethyl)amino]benzenebutanoic acid]
chemical stability [1]: largely hydrolyzed over the course of 24 hours

Nc1nc2cc(-c3ccc4ncc(N5CCN(C(=O)C6(N)CC6)CC5)nc4n3)ccc2o1
IC50 (PI3K δ): < 10 µM | IC50 (mTORC): < 10 µM | IC50 (PI3K β): < 10 µM | IC50 (PI3K γ): < 0.1 µM | IC50 (PI3K α): < 0.1 µM

Nc1nc2cc(-c3ccn4ncc(-c5ccncc5)c4n3)ccc2o1
IC50 (PI3K δ): < 0.1 µM | IC50 (mTORC): < 0.1 µM | IC50 (PI3K β): < 0.1 µM | IC50 (PI3K γ): < 0.1 µM | IC50 (PI3K α): < 0.1 µM

CCN1CCN(C2CN(c3cnc4ccc(-c5ccc6oc(N)nc6c5)nc4n3)C2)CC1
IC50 (PI3K δ): < 10 µM | IC50 (mTORC): < 10 µM | IC50 (PI3K β): < 10 µM | IC50 (PI3K γ): < 10 µM | IC50 (PI3K α): < 0.1 µM

CC(=O)Nc1nc2ccc(-c3ccc4nccc(-c5ccncc5)c4c3)cc2s1 [Compound 2]
IC50 (PI3K δ): > 10 µM | IC50 (mTORC): > 10 µM | IC50 (PI3K β): > 10 µM | IC50 (PI3K γ): < 1 µM | IC50 (PI3K α): < 1 µM

CN1CCN(C2CN(c3cnc4ccc(-c5ccc6oc(N)nc6c5)nc4c3)C2)CC1=O
IC50 (PI3K δ): < 1 µM | IC50 (mTORC): < 10 µM | IC50 (PI3K β): < 10 µM | IC50 (PI3K γ): < 0.1 µM | IC50 (PI3K α): < 0.1 µM

N#Cc1cnc2ccc(-c3ccc4oc(N)nc4c3)cc2c1
IC50 (PI3K δ): > 10 µM | IC50 (mTORC): < 10 µM | IC50 (PI3K β): > 10 µM | IC50 (PI3K γ): < 1 µM | IC50 (PI3K α): < 1 µM

C[C@H]1CN(c2cnc3ccc(-c4ccc5oc(N)nc5c4)nc3c2)CCN1
IC50 (PI3K δ): < 10 µM | IC50 (mTORC): > 10 µM | IC50 (PI3K β): < 0.1 µM | IC50 (PI3K γ): < 1 µM | IC50 (PI3K α): < 0.1 µM

Nc1nc2cc(-c3ccc4ncc(C(=O)N5CCOCC5)n4c3)ccc2o1
IC50 (PI3K δ): < 10 µM | IC50 (mTORC): < 10 µM | IC50 (PI3K β): < 10 µM | IC50 (PI3K γ): < 10 µM | IC50 (PI3K α): < 0.1 µM

Nc1nc2cc(-c3ccc4ncc(N5CC(N6CCN(CCO)CC6)C5)cc4n3)ccc2o1
IC50 (PI3K δ): < 1 µM | IC50 (mTORC): > 10 µM | IC50 (PI3K β): < 10 µM | IC50 (PI3K γ): < 1 µM | IC50 (PI3K α): < 0.1 µM

CC(C)N1CCN(c2cnc3ccc(-c4ccc5oc(N)nc5c4)nc3c2)CC1
IC50 (PI3K δ): < 1 µM | IC50 (mTORC): > 10 µM | IC50 (PI3K β): < 1 µM | IC50 (PI3K γ): < 1 µM | IC50 (PI3K α): < 0.1 µM

CC(=O)N1CCC(N(C)c2ncnc3ccc(-c4ccc5oc(N)nc5c4)cc23)CC1
IC50 (PI3K δ): < 1 µM | IC50 (mTORC): > 10 µM | IC50 (PI3K β): < 1 µM | IC50 (PI3K γ): < 1 µM | IC50 (PI3K α): < 0.1 µM

Nc1nc2cc(-c3ccc4ncc(N5CC(N6CCN(CCO)CC6)C5)nc4n3)ccc2o1
IC50 (PI3K δ): < 10 µM | IC50 (mTORC): > 10 µM | IC50 (PI3K β): < 10 µM | IC50 (PI3K γ): < 10 µM | IC50 (PI3K α): < 0.1 µM

CC(C)[N+](C)(CCOC(=O)C1c2ccccc2Oc2ccccc21)C(C)C [propantheline]
plasma stability [2]: intermediate plasma stability

CN1CCN(C2CN(c3cnc4ccc(-c5ccc6oc(N)nc6c5)nc4n3)C2)CC1
IC50 (PI3K δ): < 1 µM | IC50 (mTORC): > 10 µM | IC50 (PI3K β): < 10 µM | IC50 (PI3K γ): > 10 µM | IC50 (PI3K α): < 0.1 µM

Nc1nc2cc(-c3ccc4ncc(N5CCC(N6CCOCC6)CC5)nc4c3)ccc2o1
IC50 (PI3K δ): < 1 µM | IC50 (mTORC): > 10 µM | IC50 (PI3K β): < 1 µM | IC50 (PI3K γ): < 1 µM | IC50 (PI3K α): < 0.1 µM

C[C@H]1CN(C2CN(c3cnc4ccc(-c5ccc6oc(N)nc6c5)nc4c3)C2)CCN1
IC50 (PI3K δ): < 1 µM | IC50 (mTORC): > 10 µM | IC50 (PI3K β): < 10 µM | IC50 (PI3K γ): < 10 µM | IC50 (PI3K α): < 0.1 µM

Nc1nc2cc(-c3ccc4ncc(=O)[nH]c4c3)ccc2o1
IC50 (PI3K δ): > 10 µM | IC50 (mTORC): < 1 µM | IC50 (PI3K β): < 1 µM | IC50 (PI3K γ): < 0.1 µM | IC50 (PI3K α): < 0.1 µM

Cc1nccn1C1CN(c2cnc3ccc(-c4ccc5oc(N)nc5c4)nc3c2)C1
IC50 (PI3K δ): < 1 µM | IC50 (mTORC): > 10 µM | IC50 (PI3K β): < 10 µM | IC50 (PI3K γ): < 0.1 µM | IC50 (PI3K α): < 0.1 µM

CC1(C)CN(C2CN(c3cnc4ccc(-c5ccc6oc(N)nc6c5)nc4c3)C2)CCN1
IC50 (PI3K δ): < 1 µM | IC50 (mTORC): > 10 µM | IC50 (PI3K β): < 10 µM | IC50 (PI3K γ): < 1 µM | IC50 (PI3K α): < 0.1 µM

C[C@@H]1CN(C2CN(c3cnc4ccc(-c5ccc6oc(N)nc6c5)nc4c3)C2)CCN1
IC50 (PI3K δ): < 1 µM | IC50 (mTORC): > 10 µM | IC50 (PI3K β): < 10 µM | IC50 (PI3K γ): < 1 µM | IC50 (PI3K α): < 0.1 µM

CCCOc1cc(N)ccc1C(=O)OCCN(CC)CC [propoxycaine]
plasma stability [2]: low plasma stability

CCOC(=O)N1CCN(c2cnc3ccc(-c4ccc5oc(N)nc5c4)cc3n2)CC1
IC50 (PI3K δ): < 10 µM | IC50 (mTORC): < 10 µM | IC50 (PI3K β): < 10 µM | IC50 (PI3K γ): < 10 µM | IC50 (PI3K α): < 0.1 µM

CN1CC(C(=O)N2CCN(c3cnc4ccc(-c5ccc6oc(N)nc6c5)cc4n3)CC2)C1
IC50 (PI3K δ): < 1 µM | IC50 (mTORC): > 10 µM | IC50 (PI3K β): < 1 µM | IC50 (PI3K γ): < 1 µM | IC50 (PI3K α): < 0.1 µM

CN1CCN(C(=O)C2CN(c3cnc4ccc(-c5ccc6oc(N)nc6c5)cc4n3)C2)CC1 [drawing 360]
IC50 (PI3K δ): < 1 µM | IC50 (mTORC): < 10 µM | IC50 (PI3K β): < 1 µM | IC50 (PI3K γ): < 10 µM | IC50 (PI3K α): < 0.1 µM

CN(C)CC(=O)N1CCN(c2cnc3ccc(-c4ccc5oc(N)nc5c4)cc3n2)CC1 [drawing 329]
IC50 (PI3K δ): < 1 µM | IC50 (mTORC): > 10 µM | IC50 (PI3K β): < 1 µM | IC50 (PI3K γ): < 1 µM | IC50 (PI3K α): < 0.1 µM

CO[C@H]1C[C@@H]2CC[C@@H](C)[C@@](O)(O2)C(=O)C(=O)N2CCCC[C@H]2C(=O)O[C@H]([C@H](C)C[C@@H]2CC[C@@H](O)[C@H](OC)C2)CC(=O)[C@H](C)/C=C(\C)[C@@H](O)[C@@H](OC)C(=O)[C@H](C)C[C@H](C)/C=C/C=C/C=C/1C [rapamycin]
Akt phosphorylation [3]: enhances Akt phosphorylation | S6 phosphorylation [3]: inhibits S6 phosphorylation

Cc1nccn1C1CN(c2cnc3ccc(-c4ccc5oc(N)nc5c4)nc3n2)C1
IC50 (PI3K δ): < 10 µM | IC50 (mTORC): > 10 µM | IC50 (PI3K β): < 10 µM | IC50 (PI3K γ): < 10 µM | IC50 (PI3K α): < 0.1 µM

Nc1nc2cc(-c3ccc4ncc(N5C6CCC5COC6)nc4n3)ccc2o1
IC50 (PI3K δ): > 10 µM | IC50 (mTORC): > 10 µM | IC50 (PI3K β): > 10 µM | IC50 (PI3K γ): < 0.1 µM | IC50 (PI3K α): < 0.1 µM

CC(=O)N1CCC(Nc2ncnc3ccc(-c4ccc5oc(N)nc5c4)cc23)CC1
IC50 (PI3K δ): < 1 µM | IC50 (mTORC): < 1 µM | IC50 (PI3K β): < 10 µM | IC50 (PI3K γ): < 0.1 µM | IC50 (PI3K α): < 0.1 µM

CC1(C)CN(C2CN(c3cnc4ccc(-c5ccc6oc(N)nc6c5)nc4n3)C2)CCN1
IC50 (PI3K δ): < 1 µM | IC50 (mTORC): > 10 µM | IC50 (PI3K β): < 10 µM | IC50 (PI3K γ): < 10 µM | IC50 (PI3K α): < 0.1 µM
